Converted amounts (≈) assume the structure as drawn. Where two headings read alike, the source gives them in different places.
Legend:
[1] = Qualitative water solubility of salts (salt screen); format: physicochemical
[2] = Salt screening: XRPD of wet cake, after drying under vacuum at 50° C., after exposure to 97% relative humidity; format: physicochemical; settings: XRPD; for stability of salt solid form to humidification: 97% (>95%) relative humidity; for stability of salt solid form to drying: vacuum at 50° C.
Experimental: Stock solutions of counter-ion were prepared in EtOH, MeOH, or EtOAc, depending on solubility. […] The solvent was allowed to evaporate at room temperature over the weekend and then placed at 50° C. under vacuum for 3 hours to remove any remaining solvent. Approximately 25 volumes solvent (0.6 mL) was added to each vial for screening. The three solvents selected were EtOH, EtOAc, and IPA:water (9:1 vol). […] XRPD analysis was done in three stages. XRPD of the wet cake was done for all samples. Unique solids were then left on XRPD plates and dried under vacuum at 50° C. XRPD of unique dry solids was then done. […] The humid environment was generated by placing a beaker of saturated potassium sulfate in water in a sealed container. All XRPD patterns were compared to counter ion XRPD patterns and known free base patterns. Where solids were not of sufficient quantity to isolate, the solvent was evaporated at room temperature, the material dried at 50° C. under active vacuum for 3 hours, and then reslurried at room temperature in either MtBE or IPAc overnight after heating to 45° C. for 30 minutes.

[3] = test system: RET; settings: patients with RET-altered NSCLC and MTC; cited from earlier work
[4] = Dynamic vapor sorption (DVS); format: physicochemical; settings: for DVS Mass Change: glutarate and succinate: between 2% and 90% relative humidity; for hygroscopicity (words): DVS; for XRPD / form stability after DVS humidity cycling: XRPD before and after DVS; for total mass change by DVS: between 2% and 95% relative humidity
Experimental: Dynamic Vapor Sorption (DVS) was done using a DVS Intrinsic 1. The sample is loaded into a sample pan and suspended from a microbalance. A typical sample mass for DVS measurement is 25 mg. Nitrogen gas bubbled through distilled water provides the desired relative humidity. A typical measurement comprises the steps: • 1—Equilibrate at 50% RH • 2—50% to 2%. (50%, 40%, 30%, 20%, 10% and 2%) • a. Hold minimum of 5 mins and maximum of 60 minutes at each humidity. The pass criteria is less than 0.002% change • 3—2% to 95% (2%, 10%, 20%, 30%, 40%, 50%, 60%, 70%, 80%, 90%, 95%) • a. Hold minimum of 5 mins and maximum of 60 minutes at each humidity. The pass criteria is less than 0.002% change • 4—95% to 2% (95%, 80%, 70%, 60%, 50%, 40%, 30%, 20%, 10%, 2%) • a. Hold minimum of 5 mins and maximum of 60 minutes at each humidity. The pass criteria is less than 0.002% change • 5—2% to 50% (2%, 10%, 20%, 30%, 40%, 50%) • a. Hold minimum of 5 mins and maximum of 60 minutes at each humidity. The pass criteria is less than 0.002% change High Pressure Liquid Chromatography (HPLC)
Dynamic Vapor Sorption (DVS) was performed using a DVS Intrinsic 1. The samples (12-31 mg) was loaded into a sample pan, suspended from a microbalance and exposed to a humidified stream of nitrogen gas. The sample was held for a minimum of 5 min at each level and only progressed to the next humidity level if there was <0.002% change in weight between measurements (interval: 60 seconds) or 240 min had elapsed. The following program was used: • 1—Equilibration at 50% RH • 2—50% to 2%. (50%, 40%, 30%, 20%, 10% and 2%) • 3—2% to 95% (2%, 10%, 20%, 30%, 40%, 50%, 60%, 70%, 80%, 90%, 95%) • 4—95% to 2% (95%, 80%, 70%, 60%, 50%, 40%, 30%, 20%, 10%, 2%) • 5—2% to 50% (2%, 10%, 20%, 30%, 40%, 50%) High Performance Liquid Chromatography (HPLC)

[5] = Humidity exposure, 75% relative humidity at 40° C. for one week, XRPD; format: physicochemical; settings: for Stability 40° C./75% RH: XRPD pattern after exposure; for stability on exposure to 75% relative humidity at 40° C.: one week / 7 days, XRPD
[6] = DSC and TGA/DSC thermal analysis; format: physicochemical
Experimental: Differential scanning calorimetry was done using a Mettler Toledo DSC3+. The desired amount of sample is weighed directly in a hermetic aluminum pan with pin-hole. A typical sample mass for is 3-5 mg. A typical temperature range is 30° C. to 300° C. at a heating rate of 10° C. per minute (total time of 27 minutes). Typical parameters for DSC are listed below.
Thermogravimetric analysis and differential scanning calorimetry was done using a Mettler Toledo TGA/DSC3+. The desired amount of sample is weighed directly in a hermetic aluminum pan with pin-hole. A typical sample mass for the measurement is 5-10 mg. A typical temperature range is 30° C. to 300° C. at a heating rate of 10° C. per minute (total time of 27 minutes). Protective and purge gasses are nitrogen (20-30 mL/min and 50-100 mL/min). Typical parameters for DSC/TGA are listed below.
Differential scanning calorimetry was performed using a Mettler Toledo DSC3+. The sample (3-5 mg) was weighed directly in a 40 μL hermetic aluminum pan with pin-hole and analyzed according to the parameters below:
Thermogravimetric analysis and differential scanning calorimetry were performed on the same sample simultaneously using a Mettler Toledo TGA/DSC3+. […] The desired amount of sample (5-10 mg) was weighed directly in a hermetic aluminum pan with pin-hole and analyzed according to the parameters below: […]

[7] = Solubility in water and simulated fluids (fasted/fed state simulated intestinal fluid, fasted state simulated gastric fluid); format: physicochemical
[8] = Competitive slurry experiments between free base solid forms; format: physicochemical; settings: for competitive slurry in methanol:water: high ratios of water to methanol and lower temperatures
[9] = Thermal treatment in DSC followed by XRPD (Example 2G); format: physicochemical
From the text: Select solids were used for thermal treatment in DSC. Solids were heated to specified temperature and then cooled back to room temperature for analysis by XRPD.

[10] = One week (7 days) slurry stability by XRPD and HPLC; format: physicochemical; settings: XRPD and HPLC, listed as solid form 11-A

CO[C@]1(C(=O)N[C@@H](C)c2ccc(-n3cc(F)cn3)nc2)CC[C@H](c2nc(C)cc(Nc3cc(C)[nH]n3)n2)CC1 [Solid Form 10-A, pralsetinib]
qualitative water solubility ([1]; listed as salicylate 10-A): low solubility
stability of salt solid form to humidification ([2]; listed as 10-A): stable
stability of salt solid form to drying ([2]; listed as 10-A): stable

CO[C@]1(C(=O)N[C@@H](C)c2ccc(-n3cc(F)cn3)nc2)CC[C@H](c2nc(C)cc(Nc3cc(C)[nH]n3)n2)CC1 [Compound (I), (cis)-N-((S)-1-(6-(4-fluoro-1H-pyrazol-1-yl)pyridin-3-yl)ethyl)-1-methoxy-4-(4 methyl-6-(5-methyl-1H-pyrazol-3-ylamino)pyrimidin-2-yl)cyclohexanecarboxamide]
RET signaling [3]: attenuated
clinical responses [3]: durable clinical responses
off target toxicity [3]: without notable off target toxicity

CO[C@]1(C(=O)N[C@@H](C)c2ccc(-n3cc(F)cn3)nc2)CC[C@H](c2nc(C)cc(Nc3cc(C)[nH]n3)n2)CC1 [freebase (Pattern FB-A)]
DVS Mass Change [4]: 10.2 wt. %
Stability 40° C./75% RH [5]: Stable
Endotherm Onset, event marked (exo) ([6]; exotherm): 162.7 (exo) ° C.

CO[C@]1(C(=O)N[C@@H](C)c2ccc(-n3cc(F)cn3)nc2)CC[C@H](c2nc(C)cc(Nc3cc(C)[nH]n3)n2)CC1 [Solid Form A, pralsetinib]
reversibility of the DVS mass change [4]: reversible
share of the DVS mass change occurring above 70% relative humidity [4]: 80%
share of the DVS mass change occurring above 80% relative humidity [4]: 70%
hygroscopicity (words) [4]: hygroscopic
hygroscopicity (words) ([4]; listed as solid form A): hygroscopic
DVS Water Mass Change (wt. %) ([4]; Table 3E, listed as Pattern A): 10.2 wt. %
XRPD / form stability after DVS humidity cycling [4]: stable
XRPD / form stability after DVS humidity cycling ([4]; listed as solid form A): Pattern A
total mass change by DVS [4]: 10.2 wt. %
reversible mass change by DVS ([4]; between 2-95% relative humidity): about 10%
water mass gained by dynamic vapor sorption ([4]; between 2 and 95% relative humidity at 25° C.): 10%
water pick-up ([4]; between 15 to 75% relative humidity): about 2%
conversion to hydrate Solid Form C on prolonged / high humidity exposure [5]: did not convert to Solid Form C
stability on exposure to 75% relative humidity at 40° C. [5]: stable
stability on exposure to 75% relative humidity at 40° C. ([5]; listed as Pattern A): remained unchanged
solubility in simulated gastric fluid [7]: high solubility
solubility in simulated intestinal fluid [7]: low solubility
solubility in water [7]: low solubility
competitive slurry in methanol:water [8]: converted to Solid Form C
competitive slurry in methanol:water ([8]; listed as Pattern A): converted to a praletinib free base material characterized by XRPD Pattern C
Competitive slurry MeOH: water (1:1 vol) at 23 and 50° C. ([8]; listed as Pattern A): A converts to C
Competitive slurry isopropanol, MeOH:MtBE ([8]; listed as Pattern A): A stable
solid form after a hold at the melting point [9]: did not convert to material with XRPD Pattern H

CO[C@]1(C(=O)N[C@@H](C)c2ccc(-n3cc(F)cn3)nc2)CC[C@H](c2nc(C)cc(Nc3cc(C)[nH]n3)n2)CC1 [Solid Form F, pralsetinib]
solid form after heating to 140° C. ([9]; 140° C.): converted to solid form B

CO[C@]1(C(=O)N[C@@H](C)c2ccc(-n3cc(F)cn3)nc2)CC[C@H](c2nc(C)cc(Nc3cc(C)[nH]n3)n2)CC1 [Solid Form B, pralsetinib]
total mass change by DVS [4]: 1.4 wt. %
conversion to hydrate Solid Form C on prolonged / high humidity exposure ([5]; listed as Pattern B): not observed to convert back to hydrate XRPD Pattern C
stability on exposure to 75% relative humidity at 40° C. ([5]; listed as Pattern B): remained unchanged
solid form after heating to 190° C. ([9]; 190° C.): converted to solid form A

CO[C@]1(C(=O)N[C@@H](C)c2ccc(-n3cc(F)cn3)nc2)CC[C@H](c2nc(C)cc(Nc3cc(C)[nH]n3)n2)CC1 [Solid Form 11-A, pralsetinib]
mass change by DVS ([4]; between 2% and 90% relative humidity, listed as solid form 11-A): 0.48 wt. %
mass change by DVS ([4]; between 15% and 75% relative humidity, listed as solid form 11-A): 0.27 wt. %
DVS Mass Change ([4]; listed as Glutarate 11-A): 0.48 wt. %
reversibility of the DVS mass change ([4]; listed as solid form 11-A): appears to be reversible
Stability 40° C./75% RH ([5]; listed as Glutarate 11-A): Stable
solubility ([7]; water, room temperature, read-out: water solubility at room temperature): 240 µg/mL (≈ 450 µM)
stability slurrying 7 days in EtOAc ([10]; EtOAc): converted to a solid form designated as solid form 11-B
stability slurrying 7 days in EtOH ([10]; EtOH): converted to a solid form designated as solid form 11-B
stability of salt solid form to humidification ([2]; listed as Pattern 11-A): stable
stability of salt solid form to humidification ([2]; listed as glutarate 11-A): stable
stability of salt solid form to humidification ([2]; listed as solid form 11-A): stable
stability of salt solid form to drying ([2]; listed as Pattern 11-A): stable
stability of salt solid form to drying ([2]; listed as glutarate 11-A): stable
stability of salt solid form to drying ([2]; listed as solid form 11-A): stable
Endotherm Onset ([6]; listed as Glutarate 11-A): 177.8 °C

CO[C@]1(C(=O)N[C@@H](C)c2ccc(-n3cc(F)cn3)nc2)CC[C@H](c2nc(C)cc(Nc3cc(C)[nH]n3)n2)CC1 [Solid Form 12-A, pralsetinib]
qualitative water solubility [1]: low
stability of salt solid form to humidification ([2]; listed as Pattern 12-A): stable
stability of salt solid form to drying ([2]; listed as Pattern 12-A): stable

Reference: patent publication US12448366B2, “Solid forms of pralsetinib” (Rigel Pharmaceuticals, Inc., priority 2020, dated 2025)
